Source: ChEMBL document CHEMBL1201862, “PubChem BioAssay data set” (2004)
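How tested: cells in 96-well plates exposed to compound for 48 hours at five concentrations. GI50 is the concentration that inhibits growth by half.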 Calls of active or inactive are those of the source. Cut-off read from the data, not from the text of the source: active = GI50 up to about 1.1 µM and inactive = higher.

Assays:
Assay in all cases: NCI-60 cell line screen, 48 h
A498 = system: A498
A549 = system: A549
DU-145 = system: DU-145
EKVX = system: EKVX
HCC 2998 = system: HCC 2998
HL-60 = system: HL-60
HOP-92 = system: HOP-92
Hs-578T = system: Hs-578T
M14 = system: M14
MDA-MB-231 = system: MDA-MB-231
MOLT-4 = system: MOLT-4
Malme-3M = system: Malme-3M
NCI-H226 = system: NCI-H226
OVCAR-3 = system: OVCAR-3
OVCAR-4 = system: OVCAR-4
PC-3 = system: PC-3
SK-MEL-28 = system: SK-MEL-28
TK-10 = system: TK-10
UACC-257 = system: UACC-257
UO-31 = system: UO-31

SMILES	GI50 (A498)	GI50 (A549)	GI50 (DU-145)	GI50 (EKVX)	GI50 (HCC 2998)	GI50 (HL-60)	GI50 (HOP-92)	GI50 (Hs-578T)	GI50 (M14)	GI50 (MDA-MB-231)	GI50 (MOLT-4)	GI50 (Malme-3M)	GI50 (NCI-H226)	GI50 (OVCAR-3)	GI50 (OVCAR-4)	GI50 (PC-3)	GI50 (SK-MEL-28)	GI50 (TK-10)	GI50 (UACC-257)	GI50 (UO-31)
O=c1[nH]c(=O)n(C2CC(O)C(CS)O2)cc1F (stereo not given)	26.6 µM (inactive)	23.6 µM (inactive)	61.2 µM (inactive)	> 100 µM (inactive)	4.61 µM (inactive)	> 63.8 µM (inactive)	9.79 µM (inactive)	> 100 µM (inactive)	> 100 µM (inactive)	> 80 µM (inactive)	62.5 µM (inactive)	64.7 µM (inactive)	> 100 µM (inactive)	> 92.3 µM (inactive)	> 92.7 µM (inactive)	81.3 µM (inactive)	74.1 µM (inactive)	83.2 µM (inactive)	> 100 µM (inactive)	60.4 µM (inactive)
CC1C2CC(C/C2=N/O)C1(C)C (stereo not given)	> 100 µM (inactive)	> 100 µM (inactive)	> 100 µM (inactive)	> 100 µM (inactive)	> 100 µM (inactive)	> 100 µM (inactive)	> 100 µM (inactive)	> 100 µM (inactive)	> 100 µM (inactive)	> 100 µM (inactive)	> 100 µM (inactive)	> 100 µM (inactive)	> 100 µM (inactive)	> 100 µM (inactive)	> 100 µM (inactive)	> 100 µM (inactive)	> 100 µM (inactive)	> 100 µM (inactive)	> 100 µM (inactive)	> 100 µM (inactive)
COc1cc2c(cc1OC)-c1cc3cc(OC)c(OC)cc3c(C)[n+]1CC2.O=C([O-])CS(=O)(=O)O	> 100 µM (inactive)	> 100 µM (inactive)	> 100 µM (inactive)	> 100 µM (inactive)	19.3 µM (inactive)	> 100 µM (inactive)	95.9 µM (inactive)	> 100 µM (inactive)	> 100 µM (inactive)	> 100 µM (inactive)	9.51 µM (inactive)	29.3 µM (inactive)	> 100 µM (inactive)	29.1 µM (inactive)	> 100 µM (inactive)	15.9 µM (inactive)	> 100 µM (inactive)	> 100 µM (inactive)	15.8 µM (inactive)	> 100 µM (inactive)
O=C(c1ccccc1)c1c(C(F)(F)F)[n+]([O-])c2cc(F)c(F)cc2[n+]1[O-]	2.56 µM (inactive)	2.95 µM (inactive)	0.984 µM (active)	2.45 µM (inactive)	0.589 µM (active)	< 0.144 µM (active)	0.238 µM (active)	0.942 µM (active)	0.698 µM (active)	0.61 µM (active)	0.242 µM (active)	0.161 µM (active)	1.73 µM (inactive)	0.653 µM (active)	2.07 µM (inactive)	0.716 µM (active)	1.26 µM (inactive)	0.195 µM (active)	1.79 µM (inactive)	1.38 µM (inactive)
CCCCn1cc(C(=O)O)c(=O)c2c3sccc3ccc21	> 100 µM (inactive)	> 100 µM (inactive)	> 100 µM (inactive)	> 100 µM (inactive)	> 100 µM (inactive)	34.8 µM (inactive)	> 100 µM (inactive)	> 100 µM (inactive)	> 100 µM (inactive)	> 100 µM (inactive)	> 100 µM (inactive)	> 100 µM (inactive)	> 100 µM (inactive)	> 100 µM (inactive)	> 100 µM (inactive)	> 100 µM (inactive)	> 100 µM (inactive)	> 100 µM (inactive)	> 100 µM (inactive)	20 µM (inactive)
CCOC(CN=C=S)OCC	> 10 µM (inactive)	> 10 µM (inactive)	> 10 µM (inactive)	> 10 µM (inactive)	> 10 µM (inactive)	3.83 µM (inactive)	7.67 µM (inactive)	> 10 µM (inactive)	> 10 µM (inactive)	> 10 µM (inactive)	> 10 µM (inactive)	> 10 µM (inactive)	> 10 µM (inactive)	> 10 µM (inactive)	> 10 µM (inactive)	> 10 µM (inactive)	> 10 µM (inactive)	> 10 µM (inactive)	> 10 µM (inactive)	> 10 µM (inactive)
O=C1Nc2ccccc2NC1C1OC(c2ccccc2)=CC1=O (stereo not given)	> 100 µM (inactive)	> 100 µM (inactive)	> 100 µM (inactive)	> 100 µM (inactive)	> 100 µM (inactive)	> 100 µM (inactive)	> 100 µM (inactive)	> 100 µM (inactive)	> 100 µM (inactive)	> 100 µM (inactive)	> 100 µM (inactive)	> 100 µM (inactive)	> 100 µM (inactive)	> 100 µM (inactive)	> 100 µM (inactive)	> 100 µM (inactive)	> 100 µM (inactive)	> 100 µM (inactive)	40.8 µM (inactive)	> 100 µM (inactive)
